{"source": "PubChem BioAssay AID405", "about": "(SGCOxCompounds, 2006)", "data": [{"target": "Receptor-type tyrosine-protein phosphatase R (Homo sapiens) (UniProt Q15256)", "sequence (Q15256 whole entry, looked up)": "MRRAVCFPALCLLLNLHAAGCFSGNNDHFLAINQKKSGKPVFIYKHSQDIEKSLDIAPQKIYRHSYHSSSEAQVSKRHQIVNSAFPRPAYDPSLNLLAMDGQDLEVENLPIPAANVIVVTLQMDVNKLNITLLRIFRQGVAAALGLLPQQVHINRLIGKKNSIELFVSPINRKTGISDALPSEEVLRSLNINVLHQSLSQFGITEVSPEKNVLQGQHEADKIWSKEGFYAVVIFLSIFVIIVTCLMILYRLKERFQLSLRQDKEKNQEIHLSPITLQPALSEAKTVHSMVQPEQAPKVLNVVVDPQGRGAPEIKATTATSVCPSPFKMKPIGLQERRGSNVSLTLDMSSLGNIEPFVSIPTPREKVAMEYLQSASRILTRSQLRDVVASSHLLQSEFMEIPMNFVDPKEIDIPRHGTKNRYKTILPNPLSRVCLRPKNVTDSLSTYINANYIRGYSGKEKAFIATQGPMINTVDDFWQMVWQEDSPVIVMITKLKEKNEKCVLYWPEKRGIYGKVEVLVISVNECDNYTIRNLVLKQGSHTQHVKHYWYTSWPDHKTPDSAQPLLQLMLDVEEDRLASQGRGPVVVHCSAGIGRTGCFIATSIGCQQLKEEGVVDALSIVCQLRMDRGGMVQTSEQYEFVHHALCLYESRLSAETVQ", "test": "inhibitors of receptor tyrosine phosphatase R – biochemical, recombinant human enzyme, DiFMUP fluorescence (AID 405)", "conditions": "recombinant PTPRR, DiFMUP fluorescence phosphatase assay", "units": {"IC50": "µM"}, "values": [{"smiles": "Cc1ccc(C)n1-c1ccc(C(=O)O)cc1O", "IC50": 13.7}, {"smiles": "O=C(O)c1ccc(O)c(C=Nc2ccc3oc(-c4ccc(F)cc4Cl)nc3c2)c1", "IC50": 7.3}, {"smiles": "Cc1ccc(C)n1-c1cc(C(=O)O)ccc1O", "IC50": 3.9}, {"smiles": "CC(=O)c1ccc2c(c1)C1C=CCC1C(C(=O)O)N2", "note": "(configuration not stated)", "IC50": 6.7}, {"smiles": "COc1ccc(-c2nc3cc(N=Cc4cc(C(=O)O)ccc4O)ccc3o2)cc1", "IC50": 15.9}, {"smiles": "NC1=NC(=O)/C(=C/C=C/c2ccc([N+](=O)[O-])o2)S1", "IC50": 2.3}, {"smiles": "Cc1ccc2nc(-c3cc(N=Cc4cc(C(=O)O)ccc4O)ccc3O)[nH]c2c1", "IC50": 25.6}]}, {"target": "Receptor-type tyrosine-protein phosphatase R (Homo sapiens) (UniProt Q15256)", "test": "inhibitors of receptor tyrosine phosphatase R – biochemical, recombinant human enzyme, DiFMUP fluorescence (AID 405)", "conditions": "recombinant PTPRR, DiFMUP fluorescence phosphatase assay; at 50 µM; active compounds read high", "units": {"inhibition": "%"}, "values": [{"smiles": "O=C(O)c1ccc(O)c(C=Nc2ccc3oc(-c4cc(Cl)ccc4Cl)nc3c2)c1", "inhibition": 81}, {"smiles": "COc1ccc(OC)c(N=Cc2cc(C(=O)O)ccc2O)c1", "inhibition": 69}, {"smiles": "O=C(O)c1ccc(O)c(/C=N/N(CCO)C2=NS(=O)(=O)c3ccccc32)c1", "inhibition": 66}, {"smiles": "O=C1NC(=S)S/C1=C\\C=C\\c1ccc([N+](=O)[O-])o1", "inhibition": 100}, {"smiles": "O=C(O)c1ccc(O)c(C=Nc2ccc3oc(-c4cccc(Cl)c4)nc3c2)c1", "inhibition": 83}, {"smiles": "O=C1NC(=S)NC(=O)C1=C/C=C/c1ccco1", "inhibition": 100}, {"smiles": "OO.OO.[K+].[O]=[V].c1ccc(-c2ccccn2)nc1", "inhibition": 98}, {"smiles": "O=C(O)c1ccc(O)c(N2C(=O)Nc3ccccc3N2O)c1", "inhibition": 76}, {"smiles": "O=C([O-])c1ccccn1.OO.OO.[K+].[K+].[O]=[V]", "inhibition": 98}, {"smiles": "Cn1nc(/C=C/c2ccccc2)nc2c(=O)n(C)c(=O)nc1-2", "inhibition": 77}, {"smiles": "O=C(O)c1ccc(O)cn1.OO.[O]=[V]", "inhibition": 95}, {"smiles": "CCn1nc(/C=C/c2ccccc2)[n+](=O)c2c(=O)n(C)c(=O)[nH]c21", "inhibition": 63}, {"smiles": "CCn1nc(-c2ccc(Cl)cc2)nc2c(=O)n(C)c(=O)nc1-2", "inhibition": 64}, {"smiles": "CN(N=O)c1ccc(O)c(O)c1", "inhibition": 33}, {"smiles": "O=C(O)c1ccc(O)c(C=Nc2cccc(-c3nc4ccccc4o3)c2)c1", "inhibition": 58}, {"smiles": "O=C(O)c1ccc(O)c(C=Nc2ccc3oc(-c4ccccc4)nc3c2)c1", "inhibition": 66}, {"smiles": "O=C(O)c1ccc([O-])cn1.OO.OO.[K+].[K+].[O]=[V]", "inhibition": 98}, {"smiles": "O=C(O)c1ccc(O)c(C=Nc2ccc3oc(-c4cccc(Cl)c4Cl)nc3c2)c1", "inhibition": 66}, {"smiles": "CC(C)(c1ccc(NS(=O)(=O)C(F)(F)F)cc1)c1ccc(C(C)(C)c2ccc(NS(=O)(=O)C(F)(F)F)cc2)cc1", "inhibition": 91}, {"smiles": "Cc1ccc2oc(-c3cccc(N=Cc4cc(C(=O)O)ccc4O)c3)nc2c1", "inhibition": 51}]}]}
